Source: patent US20240141440A1, “METHODS FOR DETECTING ONCOGENIC KRAS MUTATIONS” (Duke University, priority 2022, published 2024)

Tests used:
Format in all cases: in vivo, A/J mice
exon 2 of Kras = test: Maximum depth sequencing (MDS) of Kras exon 2 from tissues of mice after urethane exposure
Description: (§1) Urethane treatment. 6-8-week-old male and female A/J mice (JAX Stock #000646) were intraperitoneally injected daily for three days with either urethane (Sigma U2500) dissolved in PBS (1 g·kg^−1) or the vehicle PBS alone. Mice were humanely euthanized 1, 2, 3, or 4 weeks after the last injection and the lung, liver, and pancreas collected for the extraction of genomic DNA. All mouse care and experiments were performed in accordance with protocols approved by the IACUC of Duke University.
(§2) Isolation of genomic DNA. MEF cells were resuspended in lysis buffer (100 mM NaCl, 10 mM Tris pH 7.6, 25 mM EDTA pH 8.0, and 0.5% SDS in H2O, supplemented with 20 μg·ml^−1 RNase A (Sigma)). Lung, pancreas, and liver (right lobe) from A/J mice (JAX Stock #000646) were cut into fine pieces and similarly resuspended in lysis buffer. Samples were incubated at 37° C. for 1 hour. 2 μl of 800 U·ml^−1 proteinase K (NEB) was then added to each sample, the samples were vortexed, and then incubated at 55° C. overnight. Genomic DNA was isolated by phenol/chloroform extraction followed by ethanol precipitation using standard procedures and quantified using Qubit fluorometer.
Maximum depth sequencing (MDS). The MDS assay^13 was adapted for mammalian Ras genes as follows. 20-50 μg of genomic DNA was incubated with StuI (NEB) for analysis of the transcribed strand of Kras exon 1, EcoRV (NEB) and EcoRI (NEB) for analysis of the non-transcribed strand of Kras exon 1, XmnI (NEB) for analysis of the non-transcribed strand of Kras exon 2, and PleI (NEB) for analysis of the transcribed strand of Kras exon 2, or HphI (NEB) for the analysis of the non-transcribed strand of Hras exon 2. Reaction conditions were 5 units of the indicated restriction enzyme and per 1 μg DNA per 20 μl reaction (e.g., 20 μg genomic DNA, 5 μl enzyme (20 units/μl), and 40 μl 10×buffer in 400 μl reaction). Digested genomic DNA was column purified using QIAquick PCR Purification Kit following the manufacturer's protocol (Qiagen) and resuspended in ddH2O (35 μl H2O per 10 μg DNA). The barcode and adaptor were added to the target DNA by incubating purified DNA with the appropriate barcode primer (see below) for one cycle of PCR. PCR reactions were comprised of 10 μg DNA, 2.5 μl of 10 μM barcode primer, 4 μl of 2.5 mM dNTP, 10 μl of 5×buffer (NEB), and 0.5 μl Q5® Hot Start High-Fidelity DNA Polymerase (NEB) in a total volume of 50 μl. The number of PCR reactions was scaled according to the amount of DNA. PCR conditions were 98° C. for 1 minute, barcode primer annealing temperate (see below) for 15 seconds, and 72° C. for 1 minute. […] The concentration of purified product was measured with SimpliNano spectrophotometer (GE Healthcare Life Sciences). […]

exon 1 of Kras = test: MDS of Kras exon 1 from lungs of mice after urethane exposure
Description: as §1, §2
(§3) Maximum depth sequencing (MDS). The MDS assay^13 was adapted for mammalian Ras genes as follows. […] The concentration of purified product was measured with SimpliNano spectrophotometer (GE Healthcare Life Sciences). […]

exon 2 of Hras = test: MDS of Hras exon 2 from lungs of mice after urethane exposure
Description: as §1, §2, §3

Kras Q61L = test: Droplet digital PCR of Kras Q61L in lungs of mice after urethane exposure; conditions: 4 weeks post urethane exposure
Description: as §1
Droplet digital PCR (ddPCR). ddPCR was performed using the QX200 AutoDG Droplet Digital PCR System (Bio-Rad) following the manufacturer's protocol in a 22 μl ddPCR reaction containing 11 μl of 2×ddPCR SuperMix for probes (no dUTP) (Bio-Rad), 66 ng template DNA, 450 nM forward and reverse primers, and 250 nM FAM- and HEX-labelled probes. The primer and probe oligonucleotides were synthesized (IDT) based on sequences previously described^76 with minor modifications. The sequences for the primers are: Kras_Q61_For: 5′-[…]-3′ (SEQ ID NO: 205); and Kras_Q61_Rev: 5′-[…]-3′ (SEQ ID NO: 206). […] Plates were read on a QX200 droplet reader (Bio-Rad) and analyzed with QuantaSoft™ Analysis Pro software (version 1.0.596) (Bio-Rad) to assess the number of droplets positive for mutant DNA, wild-type DNA, both, or neither. […]

CCOC(N)=O [urethane, ethyl carbamate]
strand bias of mutagenesis (exon 2 of Kras; lung, both strands sequenced in two exons of Kras): bias for the non-transcribed strand | most prominent substitution detected by MDS (exon 2 of Kras; lungs, Kras exon 2, all time points, urethane but not PBS): A>T transversion within the context of a 5′ C and 3′ any nucleotide | oncogenic mutation at codon Q61 of Kras detected by MDS (exon 2 of Kras; lungs, non-transcribed strand of exon 2, 1-4 weeks after three daily i.p. injections, vs PBS): oncogenic L (and to a lesser extent R) mutation at codon Q61 preferentially in the urethane, but not PBS cohort of mice, as early as 1 week after exposure | CAN→CTN transversions in liver and pancreas in comparison with the lung (exon 2 of Kras; non-transcribed strand of exon 2 of Kras, 1 and 4 weeks after urethane exposure): significantly fewer CAN→CTN transversions were recovered in the liver and pancreas | oncogenic mutations in codon 12 or 13 of Kras (exon 1 of Kras; 1 week after urethane exposure): oncogenic mutations were rarely recovered in either codon 12 or 13 | oncogenic mutations in codon 12 or 13 of Kras (exon 1 of Kras; 4 weeks after urethane exposure): some G12 and G13 mutations were detected at a low frequency | expansion of oncogenic mutations in Hras over time (exon 2 of Hras; 4 weeks vs 1 week): did not expand appreciably over time | mutations in exon 2 of Hras (exon 2 of Hras; non-transcribed strand, 1 and 4 weeks after exposure): high prevalence of A>T followed by A>G mutations | Q61L mutation frequency by droplet digital PCR (Kras Q61L): frequency similar to that determined by MDS
